This note sets out measurements from patent US9969741B2, “Pyrazolotriazines as inhibitors of nucleases” (MASARYKOVA UNIVERZITA, priority 2014, dated 2018).

One experiment deals with FEN1 (Homo sapiens, UniProt P39748). In words: Nuclease inhibition assay, FEN1 (5′ flap fluorescent DNA substrate, gel readout). The format is biochemical. The following applies: 10 nM enzyme, 5 nM 5′ flap substrate, 15 min at 30° C. The source says: (§1) In vitro assays were used for the determination of compound's IC50 values for inhibition of individual nucleases, i.e., MUS81/EME1, FEN1, EXO1, and MRE11. To generate IC50 values, concentration of compound was plotted against relative nuclease activity (in %). The dose-response curves were generated from inhibition data, from 5 point serial dilutions of inhibitory compounds, each in triplicate and fitted to a standard sigmoid curve. IC50 values were derived by standard nonlinear regression analysis.
(§2) All tested compounds were diluted in 100% DMSO (dimethylsulfoxide) to prepare working stocks with different concentrations. To keep the DMSO concentration constant in every reaction, always 0.5 μl of the compound stock was added to the reaction buffer. The reaction buffer differs depending on the enzyme tested. Also concentration of the compounds in the reaction depends on the particular enzyme, since the inhibitory effect of the compounds vary between the enzymes. Nevertheless, always doubling dilutions in the range 200-0.8 μM was used. The compound was added as the first component in the reaction buffer, followed by the enzyme addition. […]
(§3) For this experiment we prepared short fluorescently labeled oligonucleotide-based DNA substrates with specific structures reflecting the biochemical activities of tested individual nucleases (Table 1). […] For visualization, each substrate was labeled by fluorescent dye (fluorescein), which can be detected in the gel using appropriate imaging system (FLA-9000, Fuji) with filters for particular wavelengths (excitation: 485 nm, emission: 535 nm).
(§4) Nuclease assays were performed in reaction buffer specific for particular enzyme: MUS81/EME1 (50 mM Tris pH=7.5, 5 mM MgCl2, 1 mM DTT a 100 μg/ml BSA), MRE11 (30 mM Bis-Tris pH=7.0, 50 μg/ml BSA, 1 mM DTT a 250 μM MnCl2), EXO1 and FEN1 (50 mM Tris pH=7.5, 1 mM MgCl2, 1 mM DTT a 100 μg/ml BSA). […] Fluorescently labeled DNA was detected by FLA-9000 scanner (Fuji) and the result was evaluated using Multi-Gauge V3.2 software (Fuji). […]

A further experiment addresses T1, MRE11 (Saccharomyces cerevisiae, UniProt P32829).
T1 construct: made in house; host or cells: S. cerevisiae protease-deficient strain BJ5464
T1 sequence (P32829 1-692): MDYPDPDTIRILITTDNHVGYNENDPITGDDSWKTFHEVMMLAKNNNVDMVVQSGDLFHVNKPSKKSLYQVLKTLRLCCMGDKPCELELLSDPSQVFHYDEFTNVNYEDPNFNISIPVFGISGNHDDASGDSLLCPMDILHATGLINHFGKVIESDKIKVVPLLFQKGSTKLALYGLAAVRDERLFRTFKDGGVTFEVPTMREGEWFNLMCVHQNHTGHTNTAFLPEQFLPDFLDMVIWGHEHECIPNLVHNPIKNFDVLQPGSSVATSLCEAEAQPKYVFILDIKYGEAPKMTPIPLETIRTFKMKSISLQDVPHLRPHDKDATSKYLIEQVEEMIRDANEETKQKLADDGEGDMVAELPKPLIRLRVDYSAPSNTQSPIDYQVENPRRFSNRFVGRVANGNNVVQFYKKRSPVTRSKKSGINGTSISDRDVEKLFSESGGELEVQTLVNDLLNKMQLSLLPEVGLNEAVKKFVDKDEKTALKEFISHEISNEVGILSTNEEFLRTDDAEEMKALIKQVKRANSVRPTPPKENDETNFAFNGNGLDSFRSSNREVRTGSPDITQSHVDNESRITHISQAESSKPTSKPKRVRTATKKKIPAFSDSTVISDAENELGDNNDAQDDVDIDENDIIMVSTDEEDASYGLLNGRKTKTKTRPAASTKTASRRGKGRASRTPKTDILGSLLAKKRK
In words: Nuclease inhibition assay, MRE11 (5′ flap fluorescent DNA substrate, gel readout). The format is biochemical, yeast. Conditions: 5 nM enzyme, 5 nM 5′ flap substrate, 15 min at 30° C.
Excerpt: as §1, §2, §3, §4

In general, IC50 refers to the concentration at which inhibition is half-maximal. High values mean lower potency, low ones higher potency.

Sequence of FEN1 (P39748 whole entry, species assumed): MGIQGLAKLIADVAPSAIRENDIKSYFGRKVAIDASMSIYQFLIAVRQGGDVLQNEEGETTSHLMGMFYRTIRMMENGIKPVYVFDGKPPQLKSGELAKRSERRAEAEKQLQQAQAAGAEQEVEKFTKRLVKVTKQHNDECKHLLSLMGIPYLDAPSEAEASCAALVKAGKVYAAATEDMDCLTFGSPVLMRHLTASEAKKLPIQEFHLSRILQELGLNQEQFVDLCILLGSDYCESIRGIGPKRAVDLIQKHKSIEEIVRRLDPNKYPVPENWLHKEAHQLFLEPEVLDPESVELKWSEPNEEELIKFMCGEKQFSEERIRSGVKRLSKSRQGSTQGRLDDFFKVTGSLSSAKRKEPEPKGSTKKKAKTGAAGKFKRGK

As for `CCc1nn2c(N)c(-c3nc4ccccc4[nH]3)nnc2c1-c1ccc(F)cc1` [Preparative Example 5A], the IC50 against FEN1 and at MRE11 was more than 50 µM each time.

Regarding `Nc1c(-c2nc3ccccc3[nH]2)nnc2cc(-c3ccccc3)nn12` [Preparative Example 5C], the IC50 against FEN1 and on MRE11 was more than 50 µM in each case.

With `Nc1c(-c2nc3ccccc3[nH]2)nnc2cc(-c3cccc4ccccc34)nn12` [Preparative Example 5K], the IC50 at FEN1 is more than 50 µM; on MRE11, less than 50 µM.
